Measured values: article PMC7496275, “Pentathiepins: A Novel Class of Glutathione Peroxidase 1 Inhibitors that Induce Oxidative Stress, Loss of Mitochondrial Membrane Potential and Apoptosis in Human Cancer Cells” (Chemmedchem, 2020)
Like-named read-outs stand apart in the source and are kept apart here.

Experiments:
bovine erythrocyte GPx = target: T1, bovine erythrocyte GPx (Bos taurus, UniProt P00435); experiment: GPx enzyme activity assay (TBHP/GSH, GR/NADPH coupled); assay type: biochemical; conditions: 23 °C; n>3; 0.25 mM GSH; read-out: Enzyme inhibition IC50 (CI 95 %)
T1 construct: 180 μL of a bovine erythrocyte GPx1 solution (0.125 U/mL); purchased Sigma Aldrich (Taufkirchen, Germany); host or cells: bovine erythrocytes
T1 sequence (P00435 1-205): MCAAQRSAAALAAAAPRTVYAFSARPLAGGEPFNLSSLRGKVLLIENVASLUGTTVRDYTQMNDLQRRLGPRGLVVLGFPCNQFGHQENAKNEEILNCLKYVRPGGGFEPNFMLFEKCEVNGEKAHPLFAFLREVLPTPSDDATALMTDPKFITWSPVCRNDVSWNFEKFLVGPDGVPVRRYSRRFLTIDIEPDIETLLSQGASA
Procedure: The ability of pentathiepins to inhibit the bovine erythrocyte GPx activity was assayed for by an established enzyme method, which is based on the GPx‐dependent reduction of tert‐butyl hydroperoxide (TBHP) by GSH, leading to the formation of GSSG, which is coupled to the reduction of GSSG back to GSH by glutathione reductase (GR) and the oxidation of NADPH to NADP^+[10] (Figure 1). Inhibition potencies of the compounds were ranked by their IC50 values; that is, concentration of the inhibitor at the inflection point in the sigmoidal log dose‐inhibition curve (Figure 4A), and are summarized for the pentathiepins and mercaptosuccinic acid (MSA) in Table 1.
GPx enzyme activity assay: To evaluate if the various compounds could inhibit GPx1, an enzymatic assay monitoring the activity of the bovine erythrocyte GPx was used as described previously.33 Bovine erythrocyte GPx is highly homologous to the human GPx1 (homology of 87 %)34 but much more affordable. In this assay, GPx reduces tert‐butylhydroperoxide (TBHP) followed by oxidation of glutathione (GSH) to the disulfide (GSSG), which in turn is regenerated to GSH by glutathione reductase (GR) with the consumption of NADPH. To each well of a UV‐transparent 96‐well plate were added 180 μL of a bovine erythrocyte GPx1 solution (0.125 U/mL) and 30 μL of prospective inhibitor in different concentrations diluted in DMF and incubated under shaking for 15 min at room temperature. Then 30 μL of stock solutions of GSH (2.5 mM) and baker's yeast GR plus NADPH (2 U/mL; 2.0 mM) were added. All stock solutions were prepared in potassium phosphate buffer (50 mM, pH 7.4, EDTA 1.1 mM, Triton‐X 0.01 %). The reaction was started by addition of TBHP solution (5 mM), giving final concentrations of 0.075 U/mL bovine erythrocyte GPx, 0.2 U/mL GR, 0.25 mM GSH, 0.2 mM NADPH and prospective inhibitor concentrations between 0.2–100 μM. The reaction was followed by the rate of decreasing absorption of the NADPH at λ=340 nm, measured every 15 s for ca. 20 min. The GPx activity related to untreated control was imported into the GraphPad Prism 6.0 software and the IC50 values were calculated by estimating the inflection point of the sigmoidal log concentration‐activity curves.

SISO cells [1] = experiment: Alkaline comet assay; assay type: cell-based, human; conditions: 15 min at 0 °C
Procedure: (§1) To assess the induction of DNA strand breaks by pentathiepin 4 the Comet Assay was used. The SISO and HAP‐1 cell lines were treated with either 1 % DMF (solvent control), 20 μM H2O2 (positive control) or 25 μM 4 for 15 min at 0 °C. The DNA in the comet head corresponds to still intact genomic DNA while the tail forms due to the damage of nuclear DNA (Figure 9B). […] For HAP‐1 cells a greater reduction of intact DNA from 86 % in control cells to 66 % in pentathiepin‐incubated cells was observed.
(§2) Alkaline comet assay to assess induction of DNA strand breaks: The method was adapted from Olive and Banath.40 The alkaline protocol allows for the detection of single and double strand breaks as well as alkali‐labile sites and is based on the different electrophoretic mobility of intact and damaged nuclear DNA. […] The induction of strand breaks creates free charged ends that drift out and form the characteristic comet tail. The percentage of DNA that is located in the comet head was selected as descriptor, which corresponds to the amount of still intact genomic DNA.
(§3) Briefly, SISO and HAP‐1 cells were harvested by trypsinization and a single cell suspension with 50 000 cells per mL PBS was prepared. Per condition 50 000 cells were incubated on ice (to impair DNA repair) with either the solvent control DMF (1.0 %), 20 μM H2O2 or 25 μM 4 for 15 min. Afterwards, 400 μL of the cell suspension were mixed with 1.2 mL 1 % low melting point agarose (Carl Roth, Germany) at 40 °C and evenly distributed on agarose‐precoated (GeneOn, Germany) glass slides (Thermo Fisher). After 3 min polymerization the slides were horizontally submerged in lysis buffer (1.2 M NaCl (Carl Roth, Germany), 0.1 % N‐Lauryl‐Sarcosinate (Merck), 0.1 M Na‐EDTA, 0.26 M NaOH) and placed at 4 °C overnight. Before electrophoresis at 0.6 V/cm for 25 min the slides were rinsed three times in rinse/electrophoresis buffer (0.002 M Na‐EDTA, 0.03 M NaOH). Afterwards, the slides were neutralized in distilled water and subsequently stained with 250 μL of a 10 μg/mL PI in water solution for 20 min. Finally, the slides were analyzed with a Leica DMi8 fluorescent microscope and LASX software (Leica, Germany) and comets were scored with CometScore 2.0 (Rex A. Hoover, www.rexhoover.com). At least 100 comets were scored per condition.

[2] = tested on: SISO human cervix cancer cell line; experiment: Crystal violet proliferation assay; assay type: cell-based; conditions: 37 °C, 96 h, n>4, read-out: Inhibition of cell viability GI50 (CI 95 %)
Procedure: GI50 values for 50 % growth inhibition were all in a low micro molar range (Table 1). […] The indole−pentathiepins gave lower GI50 values than the pyrrolo[1,2‐a]quinoxaline derivatives. […] There was also a trend showing that an electron rich substituent in position R^2 increased the antiproliferative effect in SISO cells.
Crystal violet proliferation assay: To measure cell growth inhibition, the crystal violet assay was carried out as previously described.37 Adherent cell lines were seeded out in a 96‐well plate (1000 cells per 200 μL culture medium) and allowed to attach for 24 h. Cells were exposed to nine serial dilutions of compound, added to the medium from 1000‐fold concentrated stock solutions in DMF. For the controls, cells were exposed to 0.1 % DMF alone. After addition of compounds, plates for the detection of the starting point of the proliferation at incubation time zero (t 0) were stopped with glutaraldehyde (see below), washed with Dulbecco's buffer (containing KCl 0.2 g/L, MgSO4 ⋅ 7 H2O 0.1 g/L, Na2HPO4 ⋅ >7 H2O 1.55 g/L, KH2HPO4 0.2 g/L and NaCl 8 g/L in water) and stored at 4 °C until the staining procedure. Treated cells were incubated for 96 h in the incubator, the medium was removed and replaced with 100 μL of 1 % glutaraldehyde in Dulbecco's buffer for 20 min. After washing twice with 150 μL of Dulbecco's buffer, the buffer was removed and replaced with 100 μL of a 0.02 % crystal violet solution dissolved in water for 30 min and subsequently washed in tap water for 15 min. Water was removed and replaced with 100 μL of ethanol (70 % in water) followed by shaking on a 96‐well shaker (MS3 digital, IKA‐Werke, Germany) for 2 h. Optical density was measured with a SpectraMax Plus 383 microtiter plate reader at λ=570 nm (Molecular Devices, USA). The optical density of t 0 plates at the time of treatment were subtracted from optical densities of plates with treated cells after 96 h (T), and the growth inhibition relative to untreated, control cells (C) as described.22 Growth inhibition concentrations at 50 % (GI50) were calculated by determining the inflection point of the sigmoidal log dose‐growth inhibition (%T/C) curves with the GraphPad Prism 6.0 software.

HAP-1 cells [3] = experiment: Alkaline comet assay; assay type: cell-based, human; conditions: 20 μM positive control, 15 min at 0 °C
Procedure: as §1, §2, §3

HAP-1 cells [4] = experiment: Fluorescence microscopy of mitochondrial membrane potential (JC-1); assay type: cell-based, human; conditions: positive control, 2.5 μg/L, 1 h
Text: To determine if 4 influences the mitochondrial membrane potential (MMP), the fluorescent dye JC‐1 was used together with fluorescence microscopy.
Fluorescence microscopy of mitochondrial membrane potential: To detect possible effects of 5 on the mitochondrial membrane potential (MMP) of HAP‐1 cells the fluorescent dye JC‐1 was used.39 JC‐1 accumulates into living cells and is present in monomers in the cytosol. It can also cross the membrane of active mitochondria, were aggregates form. When excited at λ=488 nm, JC‐1 monomers give a green fluorescence while JC‐1 aggregates show red fluorescence. […] Briefly, 10^5 cells in 500 μL medium were seeded out into a chamber of a four‐well chamber‐slide and allowed to attach for 24 h. After incubation with 4 at various concentrations, cells were exposed to the JC‐1 solution for 15 min according to the manufacturer's protocol (BD Bioscience, USA). Cells on the slides were then mounted and examined with a Leica DMi8 fluorescence microscope (Leica, Germany), at λ ex/em=488/512–542 nm for JC‐1 monomers and λ ex/em=488/565–605 nm for agglomerates.

bovine GPx1 = target: T2, bovine GPx1 (Bos taurus, UniProt P00435); experiment: Jump-dilution experiments for reversibility of GPx1 inhibition; assay type: biochemical; conditions: 30 min pre-incubation at 23 °C, 100-fold jump-dilution
T2 construct: 180 μL of a bovine erythrocyte GPx1 solution (0.125 U/mL); purchased Sigma Aldrich (Taufkirchen, Germany); host or cells: bovine erythrocytes
T2 sequence (P00435 1-205): T1 sequence (P00435 1-205)
Procedure: No difference in the inhibitory activity of 4 after jump‐dilution (Figure 4B left, a) was observed compared to expected inhibition at 0.25 μM (Figure 4B left, 0.25 μM), evidence that GPx1 inhibition is reversible. […] This is consistent with findings that MSA can act as an irreversible inhibitor of GPx1.11 In further jump‐dilution experiments, we pre‐incubated both inhibitors with the assay concentrations of either GSH and TBHP (a, d) or GSH only (b, e), with (a–c) and without (d–f) GPx1 for 30 min.
The jump‐dilution experiments were carried out in a 96‐well plates at room temperature. To each well was added 75 μL of a 20 IU mL^−1 GPx stock‐solution followed by the addition of 3 μL of a 2.5 mM solution of 4 in DMF and 30 μL of a 2.5 mM solution of GSH in buffer or 30 μL of a 2.5 mM solution of GSH in buffer and 30 μL of a 5 mM solution of TBHP in water and 300 μL buffer. The plates were shaken for 30 min in the dark, then each well was diluted 100 fold into a second plate prepared for the GPx‐assay. The enzyme activity was immediately measured as described above.

human GPx = experiment: GPx activity assay with human cancer cell lysates (SISO); assay type: biochemical; conditions: inhibitor at its IC50 for bovine GPx, 0.5 mM GSH
Procedure: To investigate whether the pentathiepins have an inhibitory effect on human GPx, cell lysates of the human cervix cancer cell line SISO, which expresses high levels of GPx1 (see below), were incubated with either 4 or MSA in concentrations of the IC50 value for the inhibitory effect on bovine GPx1.
To measure the inhibition of human GPx activity, the enzyme assay was adapted to use human cancer cell lysates in place of the bovine enzyme. A quantity of 100 μg cellular protein (determined according to the Bradford method) per well was used. Due to the large consumption of cell lysates, just the inhibitory effect on GPx at one concentration of pentathiepin was determined in primary screening. The concentration of GSH was raised to a concentration of 0.5 mM to increase the velocity of the reaction, all other conditions were unchanged. The rates of NADPH oxidation were normalized to the solvent control. […] We used 100 μg protein of lysates and added GSH up to final concentrations between 0.375–3 mM. The rates of the GPx activity were calculated by nonlinear regression and the fitted with the GraphPad Prism 6.0 software: “Enzyme kinetics – Substrate vs. Velocity (Michaelis‐Menten)”.

SISO cells [5] = experiment: Fluorescence microscopy for lipid peroxidation (BODIPY 581/591); assay type: cell-based, human; conditions: 100 μM positive control, 24 h
Procedure: In another set of experiments, LPO was visualized by fluorescence microscopy with a dye for lipid peroxides, BODIPY 581/591. […] Together, our results point to apoptosis and not ferroptosis as the mechanism of cell death induced by 4.
Fluorescence microscopy for the detection of lipid peroxidation: SISO cells (250 000 cells) were seeded out in 6‐well plates with an inserted coverslip. Cells were allow to attach for 24 h and then exposed to 25 μM 4 or 100 μM tert‐butyl‐hydroperoxide as a positive control. After 24 h coverslips were washed with PBS and stained with 1 μM BODIPY 581/591 in culture medium for 30 min. Cells on the coverslips were then mounted and examined with a Leica DMi8 fluorescence microscope at λ ex/em=460–500/512–542 nm for the oxidized BODIPY 581/591 and λ ex/em=540–581/592–668 for the reduced form.

`CCOc1c2c(c3cnc4ccccc4n13)SSSSS2` [Compound 1] was tested, and the IC50 (bovine erythrocyte GPx) was 1760 nM.
For `CCOc1c2c(c3cnc4cc(C)ccc4n13)SSSSS2` [Compound 2, 12‐Ethoxy‐3‐methyl‐[1,2,3,4,5]pentathiepino[6′,7′ : 3,4]pyrrolo[1,2‐a]quinoxaline], the IC50 (bovine erythrocyte GPx) was 520 nM.
In the case of `CCOc1c2c(c3c(C(F)(F)F)nc4cc(C)ccc4n13)SSSSS2` [Compound 3, 12‐Ethoxy‐3‐methyl‐6‐(trifluoromethyl)‐[1,2,3,4,5]pentathiepino[6′,7′ : 3,4]pyrrolo[1,2‐a]quinoxaline], the IC50 (bovine erythrocyte GPx) is reported as 470 nM.
For `CCOc1c2c(c3c(C(F)(F)F)nc4cc(C)c(C)cc4n13)SSSSS2` [Compound 5, 12‐Ethoxy‐2,3‐dimethyl‐6‐(trifluoromethyl)‐[1,2,3,4,5]pentathiepino[6′,7′ : 3,4]pyrrolo[1,2‐a]quinoxaline], the “percentage of undamaged (intact) DNA in comet head” value (SISO cells [1]; 25 μM) was 80% and the IC50 (bovine erythrocyte GPx) was 1860 nM.
In the case of `Cn1c2c(c3ccccc31)SSSSS2` [Compound 6, 6‐Methyl‐6H‐[1,2,3,4,5]pentathiepino[6,7‐b]indole], the GI50 ([2]; Homo sapiens) is reported as 3500 nM and the IC50 (bovine erythrocyte GPx) is reported as 950 nM.
For `CCn1c2c(c3cc(Cl)ccc31)SSSSS2` [Compound 7, 9‐Chloro‐6‐ethyl‐6H‐[1,2,3,4,5]pentathiepino[6,7‐b]indole], the GI50 ([2]; Homo sapiens) was 1500 nM and the IC50 (bovine erythrocyte GPx) was 400 nM.
For `c1ccc(Cn2c3c(c4ccccc42)SSSSS3)cc1` [Compound 8, 6‐Benzyl‐6H‐[1,2,3,4,5]pentathiepino[6,7‐b]indole], the GI50 ([2]; Homo sapiens) was 1400 nM and the IC50 (bovine erythrocyte GPx) was 830 nM.
`OO` [Compound H2O2, hydrogen peroxide, reference compound] was tested, and the “intact DNA in comet head” value (SISO cells [1]; 20 μM positive control) was “significant decreases of intact DNA” and the “intact DNA in comet head” value (HAP-1 cells [3]) was “significant decreases of intact DNA”.
In the case of `N#CC(C#N)=NNc1ccc(OC(F)(F)F)cc1` [FCCP, carbonyl cyanide‐p‐trifluoromethoxyphenylhydrazone], the “mitochondrial membrane potential (MMP)” value (HAP-1 cells [4]) is reported as “complete loss of MMP”.
`O=C(O)CC(S)C(=O)O` (stereo not shown) [MSA, mercaptosuccinic acid, reference compound] was tested, and the GI50 [2] was 57100 nM, the “reversibility of GPx1 inhibition” value (bovine GPx1) was “some irreversible inhibition had occurred” and the IC50 (bovine erythrocyte GPx) was 5860 nM. The “inhibition of GPx activity” value (human GPx) was 60%.
In the case of `CC(C)(C)OO` [tBuOOH, reference compound], the “lipid peroxidation (LPO)” value (SISO cells [5]) is reported as “showed LPO”.
